Columns and labels:
GR = biological target: T1, GR (Homo sapiens, UniProt P04150); assay: In Vitro GR Luciferase Reporter Assay (antagonist mode, CHO-K1-GR-MMTV-Luc reporter cells); type: cell-based; details: antagonist mode, 10 nM Dexamethasone
T1 construct: expressed in transfected cells; host or cells: CHO-K1
T1 sequence (P04150 1-777): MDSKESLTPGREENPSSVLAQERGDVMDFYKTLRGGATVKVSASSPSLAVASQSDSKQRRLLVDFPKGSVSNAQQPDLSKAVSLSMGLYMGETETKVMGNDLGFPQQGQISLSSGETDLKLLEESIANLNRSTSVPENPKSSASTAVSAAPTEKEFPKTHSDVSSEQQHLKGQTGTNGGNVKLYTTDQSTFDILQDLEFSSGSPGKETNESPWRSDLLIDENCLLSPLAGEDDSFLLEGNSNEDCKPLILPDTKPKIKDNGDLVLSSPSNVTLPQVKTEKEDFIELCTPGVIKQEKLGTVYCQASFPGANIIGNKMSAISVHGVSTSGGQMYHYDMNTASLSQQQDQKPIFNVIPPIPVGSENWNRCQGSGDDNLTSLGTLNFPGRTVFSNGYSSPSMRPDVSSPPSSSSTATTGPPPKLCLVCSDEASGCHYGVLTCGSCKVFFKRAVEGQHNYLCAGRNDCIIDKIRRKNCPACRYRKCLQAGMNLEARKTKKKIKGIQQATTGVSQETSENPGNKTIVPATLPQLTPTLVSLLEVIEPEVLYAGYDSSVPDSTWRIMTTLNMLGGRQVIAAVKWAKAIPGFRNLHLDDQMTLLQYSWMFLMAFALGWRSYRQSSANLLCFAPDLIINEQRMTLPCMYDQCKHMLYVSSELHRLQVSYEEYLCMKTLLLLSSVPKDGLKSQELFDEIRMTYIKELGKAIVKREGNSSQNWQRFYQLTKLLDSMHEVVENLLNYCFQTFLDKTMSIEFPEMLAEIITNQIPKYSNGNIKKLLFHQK
In short: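 CHO-K1-GR-MMTV-Luc cells in phenol red-free DMEM with 10% CSS, stimulated with 10 nM dexamethasone (final) and treated with 8-point 1:5 compound dilutions for about 18-24 h at 37° C. Luciferase measured by OneGlo luminescence; IC50 derived for inhibition of GR activity.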

CYP2C8 = biological target: T2, CYP2C8 (Homo sapiens, UniProt P10632); assay: CYP Inhibition Assay (CYP2C8, human liver microsomes, paclitaxel substrate); type: in vitro ADME; details: pH 7.4; pooled human liver microsomes 0.1 mg/mL, probe substrate paclitaxel
T2 construct: Pooled human microsomes were obtained from Sekisui XenoTech, KS; tissue Sekisui XenoTech, KS; host or cells: pooled human liver microsomes
T2 sequence (P10632 1-490): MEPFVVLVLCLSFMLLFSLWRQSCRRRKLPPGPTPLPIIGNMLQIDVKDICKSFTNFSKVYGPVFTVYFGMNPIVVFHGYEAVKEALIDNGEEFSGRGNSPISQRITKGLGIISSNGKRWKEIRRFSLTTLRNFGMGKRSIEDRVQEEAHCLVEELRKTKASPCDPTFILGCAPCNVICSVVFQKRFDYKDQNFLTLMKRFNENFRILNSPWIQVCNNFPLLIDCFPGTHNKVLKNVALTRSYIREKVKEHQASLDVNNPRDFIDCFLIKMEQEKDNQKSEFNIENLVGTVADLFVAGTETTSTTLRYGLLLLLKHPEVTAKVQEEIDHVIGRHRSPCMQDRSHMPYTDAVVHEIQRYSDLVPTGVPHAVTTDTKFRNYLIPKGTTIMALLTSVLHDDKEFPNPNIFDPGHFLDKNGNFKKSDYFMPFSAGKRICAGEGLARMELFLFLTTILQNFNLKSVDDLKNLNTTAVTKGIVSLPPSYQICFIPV
In short: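 Pooled human liver microsomes (0.1 mg/mL) in 50 mM potassium phosphate pH 7.4 with compound, started with 1 mM NADPH, 5 min at 37° C, duplicate.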

| IC50 (GR) [nM] | inhibition at 5 min (CYP2C8) [%] | Compound |
| --- | --- | --- |
| ≤ 100 | ≤ 25 | Cn1ccc(S(=O)(=O)[C@H]2CCC3=Cc4c(cnn4-c4ccc(F)cc4)C[C@]3(C(=O)c3ccc(C(F)(F)F)cn3)C2)n1 [Example 272, ((4aS,6S)-1-(4-fluorophenyl)-6-((1-methyl-1H-pyrazol-3-yl)sulfonyl)-1,4,5,6,7,8-hexahydro-4aH-benzo[f]indazol-4a-yl)(5-(trifluoromethyl)pyridin-2-yl)methanone] |
| ≤ 100 | ≤ 25 | Cn1cnc(S(=O)(=O)N(C2CC(F)(F)C2)[C@H]2CCC3=Cc4c(cnn4-c4ccc(F)cc4)C[C@]3(C(=O)c3cc(Cl)ccn3)C2)n1 [Example 355, N-((4aS,6S)-4a-(4-chloropicolinoyl)-1-(4-fluorophenyl)-4,4a,5,6,7,8-hexahydro-1H-benzo[f]indazol-6-yl)-N-(3,3-difluorocyclobutyl)-1-methyl-1H-1,2,4-triazole-3-sulfonamide] |
| ≤ 100 | 25 to 50 | CCN([C@H]1CCC2=Cc3c(cnn3-c3ccc(F)cc3)C[C@]2(C(=O)c2cc(C(F)(F)F)ccn2)C1)S(=O)(=O)c1cn(C)nn1 [Example 231, N-ethyl-N-((4aS,6S)-1-(4-fluorophenyl)-4a-(4-(trifluoromethyl)picolinoyl)-4,4a,5,6,7,8-hexahydro-1H-benzo[f]indazol-6-yl)-1-methyl-1H-1,2,3-triazole-4-sulfonamide] |
| ≤ 100 | 25 to 50 | Cn1ccc(S(=O)(=O)N(CC(F)(F)F)[C@H]2CCC3=Cc4c(cnn4-c4ccc(F)cc4)C[C@]3(C(=O)c3ncc(C(F)(F)F)s3)C2)n1 [Example 184, N-((4aS,6S)-1-(4-fluorophenyl)-4a-(5-(trifluoromethyl)thiazole-2-carbonyl)-4,4a,5,6,7,8-hexahydro-1H-benzo[f]indazol-6-yl)-1-methyl-N-(2,2,2-trifluoroethyl)-1H-pyrazole-3-sulfonamide] |
| ≤ 100 | 25 to 50 | Cn1ccc(S(=O)(=O)N([C@H]2CCC3=Cc4c(cnn4-c4ccc(F)cc4)C[C@]3(C(=O)c3ncc(C(F)(F)F)s3)C2)[C@H]2C[C@@](O)(C(F)(F)F)C2)n1 [Example 368, N-((4aS,6S)-1-(4-fluorophenyl)-4a-(5-(trifluoromethyl)thiazole-2-carbonyl)-4,4a,5,6,7,8-hexahydro-1H-benzo[f]indazol-6-yl)-N-((1r,3S)-3-hydroxy-3-(trifluoromethyl)cyclobutyl)-1-methyl-1H-pyrazole-3-sulfonamide] |
| ≤ 100 | 25 to 50 | Cn1cnc(S(=O)(=O)CC2CCC3=Cc4c(cnn4-c4ccc(F)cc4)C[C@]3(C(=O)c3cc(C(F)(F)F)ccn3)C2)n1 (stereo partly drawn) [Example 377, ((4aR)-1-(4-fluorophenyl)-6-(((1-methyl-1H-1,2,4-triazol-3-yl)sulfonyl)methyl)-1,4,5,6,7,8-hexahydro-4aH-benzo[f]indazol-4a-yl)(4-(trifluoromethyl)pyridin-2-yl)methanone] |
| ≤ 100 | 50 to 75 | Cn1cc(S(=O)(=O)N(CC(F)(F)F)[C@H]2CCC3=Cc4c(cnn4-c4ccc(F)cc4)C[C@]3(C(=O)c3ncc(C(F)(F)F)s3)C2)cn1 [Example 250, N-((4aS,6S)-1-(4-fluorophenyl)-4a-(5-(trifluoromethyl)thiazole-2-carbonyl)-4,4a,5,6,7,8-hexahydro-1H-benzo[f]indazol-6-yl)-1-methyl-N-(2,2,2-trifluoroethyl)-1H-pyrazole-4-sulfonamide] |
| ≤ 100 | 50 to 75 | Cn1ccc(S(=O)(=O)N(CC2(O)CC2)[C@H]2CCC3=Cc4c(cnn4-c4ccc(F)cc4)C[C@]3(C(=O)c3cc(F)ccn3)C2)n1 [Example 255, N-((4aS,6S)-1-(4-fluorophenyl)-4a-(4-fluoropicolinoyl)-4,4a,5,6,7,8-hexahydro-1H-benzo[f]indazol-6-yl)-N-((1-hydroxycyclopropyl)methyl)-1-methyl-1H-pyrazole-3-sulfonamide] |
| ≤ 100 | ≤ 25 | CC(C)N([C@H]1CCC2=Cc3c(cnn3-c3ccc(F)cc3)C[C@]2(C(=O)c2ncc(C(F)(F)F)s2)C1)S(=O)(=O)c1cn(C)cn1 [Example 299, N-((4aS,6S)-1-(4-fluorophenyl)-4a-(5-(trifluoromethyl)thiazole-2-carbonyl)-4,4a,5,6,7,8-hexahydro-1H-benzo[f]indazol-6-yl)-N-isopropyl-1-methyl-1H-imidazole-4-sulfonamide] |
| ≤ 100 | ≤ 25 | Cn1cc(S(=O)(=O)N(CC(F)F)[C@H]2CCC3=Cc4c(cnn4-c4ccc(F)cc4)C[C@]3(C(=O)c3cc(C(F)(F)F)ccn3)C2)nn1 [Example 311, N-(2,2-difluoroethyl)-N-((4aS,6S)-1-(4-fluorophenyl)-4a-(4-(trifluoromethyl)picolinoyl)-4,4a,5,6,7,8-hexahydro-1H-benzo[f]indazol-6-yl)-1-methyl-1H-1,2,3-triazole-4-sulfonamide] |
| ≤ 100 | 75 to 90 | CN([C@H]1CCC2=Cc3c(cnn3-c3ccc(F)cc3)C[C@]2(C(=O)c2ncc(C(F)(F)F)s2)C1)S(=O)(=O)c1ccn(C)n1 [Example 144, N-((4aS,6S)-1-(4-fluorophenyl)-4a-(5-(trifluoromethyl)thiazole-2-carbonyl)-4,4a,5,6,7,8-hexahydro-1H-benzo[f]indazol-6-yl)-N,1-dimethyl-1H-pyrazole-3-sulfonamide] |
| ≤ 100 | ≤ 25 | Cn1cnc(S(=O)(=O)N(C2CC(F)(F)C2)[C@H]2CCC3=Cc4c(cnn4-c4ccc(F)cc4)C[C@]3(C(=O)c3cc(F)ccn3)C2)c1 [Example 335, N-(3,3-difluorocyclobutyl)-N-((4aS,6S)-1-(4-fluorophenyl)-4a-(4-fluoropicolinoyl)-4,4a,5,6,7,8-hexahydro-1H-benzo[f]indazol-6-yl)-1-methyl-1H-imidazole-4-sulfonamide] |
| ≤ 100 | 25 to 50 | C[C@]1(O)C[C@@H](N([C@H]2CCC3=Cc4c(cnn4-c4ccc(F)cc4)C[C@]3(C(=O)c3cc(Cl)ccn3)C2)S(=O)(=O)c2ccc(F)cc2)C1 [Example 344, N-((4aS,6S)-4a-(4-chloropicolinoyl)-1-(4-fluorophenyl)-4,4a,5,6,7,8-hexahydro-1H-benzo[f]indazol-6-yl)-4-fluoro-N-((1s,3R)-3-hydroxy-3-methylcyclobutyl)benzenesulfon-amide] |
| ≤ 100 | 75 to 90 | Cn1ccnc1S(=O)(=O)N(C1CC1)[C@H]1CCC2=Cc3c(cnn3-c3ccc(F)cc3)C[C@]2(C(=O)c2ncc(C(F)(F)F)s2)C1 [Example 266, N-cyclopropyl-N-((4aS,6S)-1-(4-fluorophenyl)-4a-(5 (trifluoromethyl)thiazole-2-carbonyl)-4,4a,5,6,7,8-hexahydro-1H-benzo[f]indazol-6-yl)-1-methyl-1H-imidazole-2-sulfonamide] |
| ≤ 100 | 50 to 75 | Cn1ccc(S(=O)(=O)N([C@H]2CCC3=Cc4c(cnn4-c4ccc(F)cc4)C[C@]3(C(=O)c3ncc(C(F)(F)F)s3)C2)[C@H]2C[C@](C)(O)C2)n1 [Example 326, N-((4aS,6S)-1-(4-fluorophenyl)-4a-(5-(trifluoromethyl)thiazole-2-carbonyl)-4,4a,5,6,7,8-hexahydro-1H-benzo[f]indazol-6-yl)-N-((1r,3S)-3-hydroxy-3-methylcyclobutyl)-1-methyl-1H-pyrazole-3-sulfonamide] |
